In the supplement of paper PMC10627819:

Experiments:
[1] = test system: B. subtilis 168; assay: Bliss interaction score (quartile over a dose matrix) (fitness difference); higher = more antagonism (negative = synergy)
Outline: (§1)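 The Bliss score subtracts expected fitness, the product of the single-drug fitness values, from observed fitness. Fitness is plate-normalised OD595 at entry into stationary phase, relative to the robust no-drug mean and capped at 1, with single-drug fitness inferred from combinations. Summaries are quartiles over technical, biological and donor/recipient replicates.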

[2] = test system: S. aureus Newman; assay: as above
Outline: as §1

[3] = test system: S. aureus DSM 20231; assay: as above
Outline: as §1

[4] = test system: S. pneumoniae D39V; assay: as above
Outline: as §1

[5] = test system: B. subtilis 168; assay: fitness (endpoint OD595 vs no drug) (fraction); higher = more growth
Outline: (§2)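 Volumes were 30 µl per well, or 55 µl for S. pneumoniae, in 384-well plates inoculated at OD595 0.01. Media were TSB, LB Lennox or CY at 37 °C, and OD595 was read every 30 min for 14 h with first-reading background subtraction. Fitness is the ratio of optical density at stationary-phase entry to the robust mean of no-drug controls. That ratio is capped at 1.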

[6] = test system: S. aureus Newman; assay: as above; details: one replicate
Outline: as §2

[7] = test system: S. aureus DSM 20231; assay: as above
Outline: as §2

[8] = test system: S. pneumoniae D39V; assay: as above
Outline: as §2
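For Bliss interaction score (quartile over a dose matrix) in this document: first quartile when negative (synergy) and third quartile when positive (antagonism).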

Cn1c2cccc(=O)c-2nc2ccccc21 [Pyocyanin] + Cc1cc(NS(=O)(=O)c2ccc(N)cc2)no1 [Sulfamethoxazol]
Details	Bliss interaction score
[1]	-0.063
[2]	-0.0714
[3]	0.0564
[4]	-0.0551

one replicate
Details	fitness
[5], first compound 1.25 µg/mL, partner 0.5 µg/mL	0.915
[5], first compound 2.5 µg/mL, partner 0.5 µg/mL	0.884
[5], first compound 5 µg/mL, partner 0.5 µg/mL	0.632
[8], first compound 1.3 µg/mL, partner 1 µg/mL	0.637
[8], first compound 1.3 µg/mL, partner 2 µg/mL	0.679
[8], first compound 1.3 µg/mL, partner 4 µg/mL	0.615

fitness
Details	first compound 0.325 µg/mL	first compound 0.65 µg/mL	first compound 1.25 µg/mL	first compound 2.5 µg/mL	first compound 5 µg/mL
[5], partner 1 µg/mL	–	–	0.869	0.852	0.669
[5], partner 2 µg/mL	–	–	0.862	0.738	0.685
[5], partner 4 µg/mL	–	–	0.877	0.868	0.774
[6], partner 8 µg/mL	–	–	0.911	0.858	0.778
[7], partner 1 µg/mL	–	–	0.929	0.831	0.641
[7], partner 2 µg/mL	–	–	0.939	0.903	0.674
[7], partner 4 µg/mL	–	–	0.925	0.893	0.689
[8], partner 1 µg/mL	0.983	0.936	–	–	–
[8], partner 2 µg/mL	≥ 1	0.975	–	–	–
[8], partner 4 µg/mL	0.96	0.933	–	–	–

CN(N=O)C(=O)N[C@@H](C=O)[C@@H](O)[C@H](O)[C@H](O)CO [Streptozotocin] + CC1=C\[C@@H](O)CC(=O)Cc2nc(co2)C(=O)N2CCC=C2C(=O)O[C@H](C(C)C)[C@H](C)/C=C/C(=O)NC\C=C\1 [Virginiamycin M1]
Details	Bliss interaction score
[1]	0.0477
[2]	0.0262
[3]	-0.0415
[4]	-0.0403

fitness, one replicate
Details	first compound 0.15 µg/mL	first compound 0.3 µg/mL	first compound 0.6 µg/mL	first compound 1.2 µg/mL	first compound 2.4 µg/mL	first compound 4.8 µg/mL
[5], partner 0.0625 µg/mL	≥ 1	0.975	0.991	–	–	–
[5], partner 0.125 µg/mL	0.949	0.92	0.944	–	–	–
[5], partner 0.25 µg/mL	≥ 1	≥ 1	0.958	–	–	–
[7], partner 0.5 µg/mL	0.616	0.686	0.581	–	–	–
[7], partner 1 µg/mL	0.61	0.69	0.667	–	–	–
[8], partner 0.15 µg/mL	–	–	–	0.913	0.94	0.88
[8], partner 0.3 µg/mL	–	–	–	0.848	0.93	0.925

fitness
Details	partner 0.0625 µg/mL	partner 0.125 µg/mL	partner 0.25 µg/mL	partner 0.5 µg/mL	partner 1 µg/mL	partner 2 µg/mL
[6], first compound 0.15 µg/mL	0.843	0.831	0.822	0.77	0.765	0.748
[6], first compound 0.3 µg/mL	0.677	0.682	0.661	0.639	0.672	0.629
[6], first compound 0.6 µg/mL	0.491	0.504	0.53	0.55	0.517	0.477
[7], first compound 0.15 µg/mL	0.844	0.88	0.861	–	–	–
[7], first compound 0.3 µg/mL	0.791	0.83	0.753	–	–	–
[7], first compound 0.6 µg/mL	0.66	0.714	0.681	–	–	–
[8], first compound 1.2 µg/mL	–	–	–	0.985	0.944	0.935
[8], first compound 2.4 µg/mL	–	–	–	0.99	0.966	0.939
[8], first compound 4.8 µg/mL	–	–	–	0.981	0.968	0.911
